PMC6010102, “N-thioalkylcarbazoles derivatives as new anti-proliferative agents: synthesis, characterisation and molecular mechanism evaluation” (Journal of Enzyme Inhibition and Medicinal Chemistry, 2018)

Key:
[1] = test system: MCF-7 human breast cancer cells; assay: MTT cell viability, MCF-7; format: cell-based; conditions: MCF7, 72 h exposure, mean ± SD, read-out: Antiproliferative activity IC50, MCF-7
Text: (§1) The six cell lines used in this work were purchased from American Type Culture Collection (ATCC, Manassas, VA). MCF-7 human breast cancer cells, oestrogen receptor (ER) positives, were maintained in Dulbecco’s Modified Eagle’s Medium/Nutrient Mixture F-12 Ham (DMEM/F12), supplemented with 5% foetal bovine serum (FBS) and 100 U/ml penicillin/streptomycin, as previously described. MDA-MB-231, human breast cancer cells, oestrogen receptor (ER) negative, were maintained in Dulbecco’s Modified Eagle’s Medium/Nutrient Mixture F-12 Ham (DMEM/F12), supplemented with 5% Newborn Calf Serum (NCS) and 100 U/ml penicillin/streptomycin. HeLa human epithelial cervix carcinoma cells, oestrogen receptor (ER) negative, and ISHIKAWA human endometrial adenocarcinoma cell, oestrogen receptor positive, were maintained in minimum essential medium (MEM), supplemented with 10% FBS, 100 U/ml penicillin/streptomycin and 1% non-essential amino acid. 3T3-L1 cells line of murine fibroblasts of embryonic type, were maintained in DMEM, supplemented with 10% NCS and 100 U/ml penicillin/streptomycin. MCF-10A human mammary epithelial cells were cultured in DMEM/F12 medium, supplemented with 5% horse serum (HS) (Eurobio, Les Ullis, Cedex, France), 100 U/ml penicillin/streptomycin, […] hydrocortisone, 20 ng/ml hEGF (human epidermal growth factor), 10 μg/ml insulin and […] cholera enterotoxin (Sigma-Aldrich, Milano, Italy). Cells were maintained at 37 °C in a humidified atmosphere of 95% air and 5% CO2 and periodically screened for contamination.
(§2) MDA-MB-231, MCF-7, HeLa and ISHIKAWA cells were grown in complete medium and, before being treated, they were serum deprived for 24 h, to allow cell cycle synchronisation. Then cells were grown in phenol red-free medium supplemented with 1% DCC (destran-coated charcoal treated) FBS, then treated with increasing concentrations (0.1, 1, 10, 20, 40, 100 µM) of each compound for 72 h. Compounds were dissolved in dimethylsulphoxide (DMSO) (Sigma, St. Louis, MO) and diluted in each cell medium. Untreated cells, used as a control, were added with DMSO alone (final concentration 0.1%). Cell viability was assessed using the 3-[4,5-dimethylthiazol-2-yl]-2,5-diphenyltetrazolium bromide reagent (MTT), according to the protocol from manufacturer (Sigma-Aldrich, Milan, Italy), as previously described[37] ^, [38]. For each sample, the mean absorbance, measured at 570 nm, was expressed as a percentage of the control and plotted versus drug concentration to determine for each cell line the IC50 values (namely, drugs concentrations able to reduce cell viability of 50% with respect to the control), using GraphPad Prism 5 Software (GraphPad Inc., San Diego, CA)[39]. Each experiment was carried out in quadruplicate. Standard deviations (SD) were shown.

[2] = test system: ISHIKAWA human endometrial adenocarcinoma cells; assay: MTT cell viability, ISHIKAWA; format: cell-based; conditions: 72 h exposure, mean ± SD, read-out: Antiproliferative activity IC50, ISHIKAWA
Text: as §1, §2

caspase-9 = assay: Caspase-Glo assay, caspase-9; format: cell-based, human; conditions: HeLa cells, concentration equal to IC50, 24 h
Description: Caspases-3/7, -8 and -9 activities were measured with the Caspase-Glo Assay, according to the guidelines of manufacturer (Caspase-Glo® 3/7, 8 and 9 Assay Systems, Promega Corporation, Madison, WI) as described in Iacopetta et al.[43].

hTopoI = target: T1, hTopoI (Homo sapiens, UniProt P11387); assay: Human topoisomerase I relaxation assay; format: biochemical; conditions: direct in vitro assay, data not shown
T1 sequence (P11387 1-765): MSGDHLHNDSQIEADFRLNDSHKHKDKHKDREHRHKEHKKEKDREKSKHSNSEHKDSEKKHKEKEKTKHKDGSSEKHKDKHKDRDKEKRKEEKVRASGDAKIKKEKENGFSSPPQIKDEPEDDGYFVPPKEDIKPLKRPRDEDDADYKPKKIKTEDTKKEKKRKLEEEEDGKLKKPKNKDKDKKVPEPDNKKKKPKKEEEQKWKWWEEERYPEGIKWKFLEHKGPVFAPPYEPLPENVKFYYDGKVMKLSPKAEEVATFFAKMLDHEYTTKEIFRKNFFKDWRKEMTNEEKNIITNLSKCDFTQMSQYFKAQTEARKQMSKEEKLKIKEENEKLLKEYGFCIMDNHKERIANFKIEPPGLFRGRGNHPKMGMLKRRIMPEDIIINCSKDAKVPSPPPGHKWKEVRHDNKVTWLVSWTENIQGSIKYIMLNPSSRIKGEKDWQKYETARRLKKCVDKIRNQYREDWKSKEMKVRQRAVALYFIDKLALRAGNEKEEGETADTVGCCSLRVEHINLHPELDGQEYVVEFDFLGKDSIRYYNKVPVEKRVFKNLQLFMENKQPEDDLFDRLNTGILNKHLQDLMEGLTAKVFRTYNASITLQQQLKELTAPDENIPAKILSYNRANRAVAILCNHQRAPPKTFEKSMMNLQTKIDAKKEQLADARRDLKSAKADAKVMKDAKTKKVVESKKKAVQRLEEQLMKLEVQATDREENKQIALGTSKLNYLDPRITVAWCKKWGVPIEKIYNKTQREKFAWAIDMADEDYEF
Description: Human topoisomerase I relaxation assay: hTopoI relaxation assays were performed as reported in Iacopetta et al.[8].

[3] = test system: MDA-MB-231 human breast cancer cells; assay: MTT cell viability, MDA-MB-231; format: cell-based; conditions: 72 h exposure, mean ± SD, read-out: Antiproliferative activity IC50, MDA-MB-231
Text: as §1, §2

hTopoII = hTopoII (Homo sapiens, UniProt P11388); assay: Human topoisomerase II decatenation assay; format: biochemical; conditions: 10 µM
Chain of hTopoII (P11388 whole entry): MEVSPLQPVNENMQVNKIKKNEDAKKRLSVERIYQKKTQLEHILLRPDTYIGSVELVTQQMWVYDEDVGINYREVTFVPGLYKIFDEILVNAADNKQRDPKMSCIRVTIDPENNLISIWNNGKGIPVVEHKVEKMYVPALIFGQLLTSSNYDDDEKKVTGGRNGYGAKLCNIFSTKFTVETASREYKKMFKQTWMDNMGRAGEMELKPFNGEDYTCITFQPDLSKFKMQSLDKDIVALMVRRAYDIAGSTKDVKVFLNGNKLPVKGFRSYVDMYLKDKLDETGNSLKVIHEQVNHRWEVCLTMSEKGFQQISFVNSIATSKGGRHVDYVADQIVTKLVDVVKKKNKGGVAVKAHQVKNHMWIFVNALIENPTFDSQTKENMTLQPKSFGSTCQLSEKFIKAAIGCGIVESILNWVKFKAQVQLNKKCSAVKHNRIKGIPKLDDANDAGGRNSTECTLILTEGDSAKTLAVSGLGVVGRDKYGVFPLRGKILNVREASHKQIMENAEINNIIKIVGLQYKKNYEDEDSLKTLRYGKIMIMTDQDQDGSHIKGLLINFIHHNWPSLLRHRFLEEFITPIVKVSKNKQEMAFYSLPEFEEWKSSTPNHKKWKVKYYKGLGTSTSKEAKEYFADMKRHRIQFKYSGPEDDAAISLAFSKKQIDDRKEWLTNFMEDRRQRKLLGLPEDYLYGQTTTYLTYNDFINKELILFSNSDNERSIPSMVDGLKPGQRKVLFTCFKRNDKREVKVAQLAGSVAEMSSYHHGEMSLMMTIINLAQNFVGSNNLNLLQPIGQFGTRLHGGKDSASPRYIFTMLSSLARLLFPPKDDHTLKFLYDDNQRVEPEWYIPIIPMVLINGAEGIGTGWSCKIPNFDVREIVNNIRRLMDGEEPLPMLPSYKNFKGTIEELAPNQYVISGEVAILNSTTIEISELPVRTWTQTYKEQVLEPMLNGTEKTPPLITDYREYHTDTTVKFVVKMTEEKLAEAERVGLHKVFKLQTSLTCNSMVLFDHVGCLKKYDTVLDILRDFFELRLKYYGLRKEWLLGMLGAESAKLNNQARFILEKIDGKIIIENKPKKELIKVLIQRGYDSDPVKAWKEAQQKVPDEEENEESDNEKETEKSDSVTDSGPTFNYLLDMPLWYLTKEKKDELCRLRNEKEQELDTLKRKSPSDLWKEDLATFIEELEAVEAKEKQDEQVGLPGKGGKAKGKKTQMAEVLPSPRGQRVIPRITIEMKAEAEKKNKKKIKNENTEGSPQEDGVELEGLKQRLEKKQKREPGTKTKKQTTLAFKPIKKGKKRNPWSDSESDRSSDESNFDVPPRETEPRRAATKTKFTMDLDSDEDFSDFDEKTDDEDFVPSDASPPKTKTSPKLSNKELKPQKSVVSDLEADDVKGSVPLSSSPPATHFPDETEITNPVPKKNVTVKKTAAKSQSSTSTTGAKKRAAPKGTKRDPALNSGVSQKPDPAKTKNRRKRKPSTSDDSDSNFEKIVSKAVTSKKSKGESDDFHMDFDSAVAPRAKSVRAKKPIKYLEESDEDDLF
Description: Human topoisomerase II decatenation assay: hTopoII decatenation assays were performed as reported in Iacopetta et al.[8].
Figure 2. hTopoII inhibition assay. kDNA was incubated with human Topoisomerase II in the absence (lane C, vehicle DMSO) or presence of compound 5c (lane 5c) or Ellipticine (lane E) at 10 and 50 µM, respectively. Lane K, kinetoplast DNA (kDNA).

[4] = test system: 3T3-L1 murine fibroblasts; assay: MTT cell viability, 3T3-L1; format: cell-based; conditions: Mus musculus, non-tumoural cells, 72 h exposure, mean ± SD, read-out: Antiproliferative activity IC50, 3T3-L1
Text: as §1, §2

For Cc1ccc(C)c2c1c1cc(Br)ccc1n2CCCCCCCS [5c, 7-(6-Bromo-1,4-dimethyl-9H-carbazol-9-yl)-heptane-1-thiol], the IC50 [1] was 54.9 ± 1 µM, the IC50 [2] was 15.7 ± 0.95 µM and the caspase-9 activity (caspase-9) was “little, but significant, rise of caspase-9 activity”. For the same compound, the hTopoI inhibition (hTopoI) was “no inhibition”, the IC50 [3] was 27.2 ± 0.75 µM and the “hTopoII inhibition (kDNA decatenation)” value (hTopoII) was “able to inhibit hTopoII activity”. For the same compound, the IC50 [4] was greater than 100 µM.
